# Experimental data from US20220153732A1, “PROTEIN SECRETION INHIBITORS” (KEZAR LIFE SCIENCES, priority 2019, published 2022).
# Key:
# Assay type in all cases: cell-based
# [1] = test system: PD1-ss+10aa/Gaussia Luciferase; experiment: Dox-Induced PD1-ss-Gluc Assay; details: 24 hr doxycycline induction, 293FRT/TO cells, Gaussia luciferase signal; read-out: 24 hr Dox Inducible PD1ssGluc 293FRT/TO: Mean IC50
# In short: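 Compounds, diluted in DMSO/media with doxycycline, were added to cells plated a day earlier and kept at 37° C under 5% CO2. The cells stably express a Gaussia luciferase construct fused to PD1-ss+10aa, induced via the T-REx system. Unassigned stereochemistry means mixture data.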
# [2] = test system: human multiple myeloma cell line U266B1; experiment: U266 Cell Viability Assay; details: U-266, 48 hr, U266B1 cells, Celltiter-Glo, read-out: 48 hr U266 Viability Celltiter-Glo: Mean EC50
# In short: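 Viability measured by CellTiter-Glo luciferase signal after 48 h compound exposure (37 °C, 5% CO2) of U266B1 cells in 384-well format. Where stereochemistry is not shown, data refer to the stereoisomer mixture.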
# [3] = test system: HER3-ss+4aa/Gaussia Luciferase; experiment: Dox-Induced Her3-ss-Gluc Assay; details: 24 hr doxycycline induction, 293FRT/TO cells, Gaussia luciferase signal; read-out: 24 hr Dox Inducible Her3(ss + 4)Gluc 293FRT/TO: Mean IC50
# In short: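 Compounds, diluted in DMSO/media containing doxycycline, were incubated at 37° C., 5% CO2 with cells seeded one day earlier. The cells stably express HER3-ss+4aa/Gaussia luciferase under T-REx control. Where no stereochemistry is shown, data refer to the mixture of stereoisomers.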
# [4] = test system: human multiple myeloma cell line NCI-H929; experiment: H929 Cell Viability Assay; details: 48 hr, NCI-H929 cells, Celltiter-Glo, read-out: 48 hr H929 Viability Celltiter-Glo: Mean EC50
# Procedure: Plates were incubated at 37° C., 5% CO2 for 48 hours. After 48 hours, Celltiter-Glo® (Promega) was added to each well and luciferase signal was quantified using Tecan Infinite M1000 Pro for cell viability determination.
# For chemical structures that include one or more stereoisomers, but are illustrated without indicating stereochemistry, the assay data refers to a mixture of stereoisomers.
# [5] = test system: IL-2-FL/Gaussia Luciferase; experiment: Dox Induced IL2-FL-Gluc Assay; details: 24 hr doxycycline induction, 293FRT/TO cells, Gaussia luciferase signal; read-out: 24 hr Dox Inducible IL2FLGIuc 293FRT/TO: Mean IC50
# In short: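 Compounds were added together with doxycycline in DMSO/media and incubated at 37° C., 5% CO2. The cells were a stably selected line carrying IL-2-FL/Gaussia luciferase under T-REx inducible control. Structures drawn without stereochemistry were tested as stereoisomer mixtures.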
# [6] = test system: TNFα-FL/Gaussia Luciferase; experiment: Dox Induced TNFα-FL-Gluc Assay; details: 24 hr doxycycline induction, 293FRT/TO cells, Gaussia luciferase signal; read-out: 24 hr Dox Inducible TNFaFLGluc 293FRT/TO: Mean IC50
# In short: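 Compounds were added in doxycycline-containing DMSO/media to cells plated the previous day and incubated at 37° C under 5% CO2. These cells stably express a TNFα-FL/Gaussia luciferase cDNA whose expression is under T-REx (Dox-inducible) control, selected with Hygromycin and Blasticidin.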
IC50 [1] [µM],EC50 [2] [µM],IC50 [3] [µM],EC50 [4] [µM],IC50 [5] [µM],IC50 [6] [µM],Compound
> 25,> 25,> 25,> 25,7.27,> 25,"CC(C)OC(C)(C)c1csc(NC(=O)c2nccn2Cc2ccncc2)n1 [Compound A108, N-(4-(2-isopropoxypropan-2-yl)thiazol-2-yl)-1-(pyridin-4-ylmethyl)-1H-imidazole-2-carboxamide]"
> 25,> 25,> 25,19.5,> 25,> 25,"CC(C)OC(C)(C)c1csc(NC(=O)c2cc(C(N)=O)cn2Cc2ccncc2)n1 [Compound A109, N2-(4-(2-isopropoxypropan-2-yl)thiazol-2-yl)-1-(pyridin-4-ylmethyl)-1H-pyrrole-2,4-dicarboxamide]"
> 25,> 25,> 25,> 25,> 25,> 25,"CC(C)OC(C)(C)c1csc(NC(=O)c2ccc(CO)n2Cc2ccncc2)n1 [Compound A110, 5-(hydroxymethyl)-N-(4-(2-isopropoxypropan-2-yl)thiazol-2-yl)-1-(pyridin-4-ylmethyl)-1H-pyrrole-2-carboxamide]"
> 25,> 25,> 25,> 25,> 25,> 25,"CC(C)OC(C)(C)c1csc(NC(=O)c2cc(C(=O)N(C)C)cn2Cc2ccncc2)n1 [Compound A111, N2-(4-(2-isopropoxypropan-2-yl)thiazol-2-yl)-N4,N4-dimethyl-1-(pyridin-4-ylmethyl)-1H-pyrrole-2,4-dicarboxamide]"
> 25,> 25,> 25,> 25,> 25,> 25,"CC(C)OC(C)(C)c1csc(NC(=O)c2ccnn2Cc2ccncc2)n1 [Compound A112, N-(4-(2-isopropoxypropan-2-yl)thiazol-2-yl)-1-(pyridin-4-ylmethyl)-1H-pyrazole-5-carboxamide]"
> 25,> 25,> 25,> 25,> 25,> 25,"CC(C)OC(C)(C)c1csc(NC(=O)c2cc(CO)cn2Cc2ccncc2)n1 [Compound A113, 4-(hydroxymethyl)-N-(4-(2-isopropoxypropan-2-yl)thiazol-2-yl)-1-(pyridin-4-ylmethyl)-1H-pyrrole-2-carboxamide]"
> 25,> 25,> 25,> 25,> 25,> 25,"CC(=O)Nc1ccc(Cn2cccc2C(=O)Nc2nc(C(C)(C)OC(C)C)cs2)cc1 [Compound A114, 1-(4-acetamidobenzyl)-N-(4-(2-isopropoxypropan-2-yl)thiazol-2-yl)-1H-pyrrole-2-carboxamide]"
> 25,> 25,> 25,> 25,> 25,> 25,"CC(C)OC(C)(C)c1csc(NC(=O)c2ccn(Cc3ccncc3)c2)n1 [Compound A122, N-(4-(2-isopropoxypropan-2-yl)thiazol-2-yl)-1-(pyridin-4-ylmethyl)-1H-pyrrole-3-carboxamide]"
> 25,> 25,> 25,> 25,> 25,> 25,"CC(C)OC(C)(C)c1csc(NC(=O)c2cccn2Cc2ccc(=O)n(C)c2)n1 [Compound A124, N-(4-(2-isopropoxypropan-2-yl)thiazol-2-yl)-1-((1-methyl-6-oxo-1,6-dihydropyridin-3-yl)methyl)-1H-pyrrole-2-carboxamide]"
> 25,> 25,> 25,> 25,> 25,> 25,"COc1cc(Cn2cccc2C(=O)Nc2nc(C(C)(C)OC(C)C)cs2)ccn1 [Compound A125, N-(4-(2-isopropoxypropan-2-yl)thiazol-2-yl)-1-((2-methoxypyridin-4-yl)methyl)-1H-pyrrole-2-carboxamide]"
> 25,> 25,> 25,> 25,> 25,> 25,"CC(C)OC(C)(C)c1csc(NC(=O)c2cccn2Cc2ccn(C)c(=O)c2)n1 [Compound A127, N-(4-(2-isopropoxypropan-2-yl)thiazol-2-yl)-1-((1-methyl-2-oxo-1,2-dihydropyridin-4-yl)methyl)-1H-pyrrole-2-carboxamide]"

# More lines, now with the values behind:
Compound,IC50 [1] [µM],EC50 [2] [µM],IC50 [3] [µM],EC50 [4] [µM],IC50 [5] [µM],IC50 [6] [µM]
O=C(Nc1nc2nccnc2s1)c1cccn1Cc1ccncc1 [Compound A115],> 25,> 25,> 25,> 25,> 25,> 25
CN(C(=O)c1cccn1Cc1ccncc1)c1nc2ccccc2s1 [Compound A116],> 25,> 25,> 25,> 25,> 25,> 25
"CC(C)c1csc(CNC(=O)c2cccn2Cc2ccncc2)n1 [Compound A117, N-((4-isopropylthiazol-2-yl)methyl)-1-(pyridin-4-ylmethyl)-1H-pyrrole-2-carboxamide]",> 25,> 25,> 25,> 25,> 25,> 25
Cc1csc(N(C)C(=O)c2cccn2Cc2ccncc2)n1 [Compound A118],> 25,> 25,> 25,> 25,> 25,> 25
O=C(Nc1ncc(CCO)s1)c1cccn1Cc1ccncc1 [Compound A119],> 25,> 25,> 25,> 25,> 25,> 25
O=C(Nc1nc(CCO)cs1)c1cccn1Cc1ccncc1 [Compound A120],> 25,> 25,> 25,> 25,> 25,> 25
O=C(Nc1nc2cccnc2s1)c1cccn1Cc1ccncc1 [Compound A121],> 25,> 25,> 25,> 25,> 25,> 25
CC(C)OC1(c2csc(NC(=O)c3cccn3Cc3ccncc3)n2)CC1 [Compound A123],> 25,> 25,> 25,> 25,> 25,> 25
"CC(=O)N1CCC(Cn2cccc2C(=O)Nc2nc(C(C)(C)OC(C)C)cs2)CC1 [Compound A128, 1-((1-acetylpiperidin-4-yl)methyl)-N-(4-(2-isopropoxypropan-2-yl)thiazol-2-yl)-1H-pyrrole-2-carboxamide]",> 25,> 25,> 25,> 25,> 25,> 25
"CC(C)OC(C)(C)c1csc(NC(=O)c2cccn2CC2CCN(C)CC2)n1 [Compound A129, N-(4-(2-isopropoxypropan-2-yl)thiazol-2-yl)-1-((1-methylpiperidin-4-yl)methyl)-1H-pyrrole-2-carboxamide]",> 25,> 25,> 25,> 25,> 25,> 25
"CCc1nc(NC(=O)c2cccn2Cc2cccnc2)sc1C [Compound A131, N-(4-ethyl-5-methylthiazol-2-yl)-1-(pyridin-3-ylmethyl)-1H-pyrrole-2-carboxamide]",> 25,> 25,> 25,> 25,> 25,> 25
O=C(Nc1nc(C#Cc2ccccc2)cs1)c1cccn1Cc1ccncc1 [Compound A132],0.15,9.34,0.417,8.85,0.744,1.21
COc1ccccc1C#Cc1csc(NC(=O)c2cccn2Cc2ccncc2)n1 [Compound A141],0.277,13.1,0.651,7.72,1.58,1.82
